Test results as given in PubChem BioAssay AID330 (DTP/NCI, 2004).
Toxic doses and inconclusive results are not listed. How the source made its calls: active means survival T/C of 150% or more; inactive means T/C below 125% in these data.

Tested on: P388 leukemia ip, CD2F1 mice, survival T/C
Assay: NCI In Vivo Anticancer Drug Screen. Data for tumor model P388 Leukemia (intraperitoneal) in CD2F1 (CDF1) mice
Conditions: endpoint: median survival time, higher = longer survival
Outline: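 Mice carrying the transplanted tumor received test compound or vehicle. Survival was recorded in each group, and the value is the treated-group measurement divided by that of the vehicle-treated control group.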

[1] = dose: 6.25 mg/kg/injection, schedule: Q01DX009 (ip), vehicle: saline with Tween-80
[2] = dose: 12.5 mg/kg/injection, schedule: Q01DX009 (ip), vehicle: saline with Tween-80
[3] = dose: 25.0 mg/kg/injection, schedule: Q01DX009 (ip), vehicle: saline with Tween-80
[4] = dose: 50.0 mg/kg/injection, schedule: Q01DX009 (ip), vehicle: other
[5] = dose: 100.0 mg/kg/injection, schedule: Q01DX009 (ip), vehicle: other
[6] = dose: 50.0 mg/kg/injection, schedule: Q01DX009 (ip), vehicle: saline with Tween-80
[7] = dose: 50.0 mg/kg/injection, schedule: Q01DX005 (ip), vehicle: saline with Tween-80
[8] = dose: 100.0 mg/kg/injection, schedule: Q01DX005 (ip), vehicle: saline with Tween-80
[9] = dose: 200.0 mg/kg/injection, schedule: Q01DX005 (ip), vehicle: saline with Tween-80

Measured: T/C

C=C1C2(CN)CCC(C2)C1(C)C (stereo not drawn)
inactive: [1] 101 % of control | dose: 12.5 mg/kg/injection, schedule: Q01DX001 (ip), vehicle: saline with Tween-80 96 % of control | [2] 98 % of control | dose: 25.0 mg/kg/injection, schedule: Q01DX001 (ip), vehicle: saline with Tween-80 101 % of control | [3] 98 % of control | dose: 50.0 mg/kg/injection, schedule: Q01DX001 (ip), vehicle: saline with Tween-80 99 % of control

O=C1OC(c2ccccc2)N/C1=C\c1ccc(OCc2ccccc2)c(OCc2ccccc2)c1 (stereo not drawn)
inactive: dose: 100.0 mg/kg/injection, schedule: Q04DX003 (ip), vehicle: Klucel (hydroxypropylcellulose) (HPC) 94 % of control | dose: 200.0 mg/kg/injection, schedule: Q04DX003 (ip), vehicle: Klucel (hydroxypropylcellulose) (HPC) 87 % of control | dose: 400.0 mg/kg/injection, schedule: Q04DX003 (ip), vehicle: Klucel (hydroxypropylcellulose) (HPC) 90 % of control

CC(=O)N/N=C/c1ccccc1[N+](=O)[O-]
inactive: dose: 12.5 mg/kg/injection, schedule: Q01DX009 (ip), vehicle: other 97 % of control | dose: 25.0 mg/kg/injection, schedule: Q01DX009 (ip), vehicle: other 96 % of control | [4] 98 % of control | [5] 107 % of control

O=C(OC1C(O)OC2COC(=O)c3cc(O)c(O)c(O)c3-c3c(cc(O)c(O)c3O)C(=O)OC2C1O)c1cc(O)c(O)c(O)c1 (stereo not drawn)
inactive: dose: 3.75 mg/kg/injection, schedule: Q01DX009 (ip), vehicle: saline with Tween-80 97 % of control | dose: 7.5 mg/kg/injection, schedule: Q01DX009 (ip), vehicle: saline with Tween-80 102 % of control | dose: 15.0 mg/kg/injection, schedule: Q01DX009 (ip), vehicle: saline with Tween-80 103 % of control

CCN1CCn2c(c(COC(=O)NC(C)C)c(COC(=O)NC(C)C)c2-c2ccc(Cl)c(Cl)c2)C1
inactive: dose: 6.25 mg/kg/injection, schedule: Q01DX009 (ip), vehicle: distilled water + Tween-80 116 % of control | dose: 12.5 mg/kg/injection, schedule: Q01DX009 (ip), vehicle: distilled water + Tween-80 122 % of control | dose: 18.8 mg/kg/injection, schedule: Q01DX009 (ip), vehicle: distilled water + Tween-80 97 % of control | dose: 25.0 mg/kg/injection, schedule: Q01DX009 (ip), vehicle: distilled water + Tween-80 116 % of control | dose: 37.5 mg/kg/injection, schedule: Q01DX009 (ip), vehicle: distilled water + Tween-80 114 % of control

O=C(O)CC(=O)c1ccccc1
inactive: [3] 102 % of control | [6] 105 % of control | dose: 200.0 mg/kg/injection, schedule: Q01DX009 (ip), vehicle: saline with Tween-80 89 % of control

CSC(=S)n1nc(-c2ccccc2)c(N=Nc2ccccc2[N+](=O)[O-])c1-c1ccccc1
inactive: dose: 100.0 mg/kg/injection, schedule: Q04DX002 (ip), vehicle: Klucel (hydroxypropylcellulose) (HPC) 105 % of control | dose: 200.0 mg/kg/injection, schedule: Q04DX002 (ip), vehicle: Klucel (hydroxypropylcellulose) (HPC) 97 % of control

O=c1c2ncccc2cc2n1CCc1c-2[nH]c2ccccc12
inactive: [1] 88 % of control | [2] 86 % of control

O=C(N=Nc1c(Cl)c(O)c2ccccc2c1O)C(=O)Nc1ccc(Cl)c([N+](=O)[O-])c1
inactive: [6] 113 % of control | dose: 100.0 mg/kg/injection, schedule: Q01DX009 (ip), vehicle: saline with Tween-80 112 % of control

O/N=C/c1ccc(Cl)cc1Cl
inactive: dose: 25.0 mg/kg/injection, schedule: Q01DX005 (ip), vehicle: saline with Tween-80 98 % of control | [7] 107 % of control | [8] 92 % of control | [9] 96 % of control

O=P(c1ccccc1)(c1ccccc1)c1ccccc1OCc1cccc(COc2ccccc2P(=O)(c2ccccc2)c2ccccc2)n1
inactive: dose: 50.0 mg/kg/injection, schedule: Q01DX005 (ip), vehicle: Klucel (hydroxypropylcellulose) (HPC) 99 % of control | dose: 100.0 mg/kg/injection, schedule: Q01DX005 (ip), vehicle: Klucel (hydroxypropylcellulose) (HPC) 91 % of control | dose: 200.0 mg/kg/injection, schedule: Q01DX005 (ip), vehicle: Klucel (hydroxypropylcellulose) (HPC) 97 % of control

CC(=O)c1nn(-c2ccccc2)c(=Nc2ccccc2)cc1C
inactive: [7] 100 % of control | [8] 101 % of control | [9] 98 % of control

Nc1c(C(=O)NCCc2ccccc2)c2nc3c(C(=O)NCCc4ccccc4)cccc3oc-2cc1=O
inactive: [7] 96 % of control | [8] 89 % of control | [9] 105 % of control

CC1=NS(C)(=O)=c2ccccc2=N1 (stereo not drawn)
inactive: dose: 100.0 mg/kg/injection, schedule: Q04DX003 (ip), vehicle: saline with Tween-80 105 % of control | dose: 200.0 mg/kg/injection, schedule: Q04DX003 (ip), vehicle: saline with Tween-80 105 % of control | dose: 400.0 mg/kg/injection, schedule: Q04DX003 (ip), vehicle: saline with Tween-80 106 % of control

O=C1Cc2ccccc2C(c2ccc(Cl)cc2Cl)N1 (stereo not drawn)
inactive: dose: 50.0 mg/kg/injection, schedule: Q01DX009 (ip), vehicle: saline 98 % of control | dose: 100.0 mg/kg/injection, schedule: Q01DX009 (ip), vehicle: saline 98 % of control | dose: 200.0 mg/kg/injection, schedule: Q01DX009 (ip), vehicle: saline 100 % of control

O=C1Nc2ccc(Cl)cc2C(c2ccccc2Cl)=NC1O (stereo not drawn)
inactive: dose: 100.0 mg/kg/injection, schedule: Q01DX009 (ip), vehicle: Klucel (hydroxypropylcellulose) (HPC) 102 % of control | dose: 200.0 mg/kg/injection, schedule: Q01DX009 (ip), vehicle: Klucel (hydroxypropylcellulose) (HPC) 96 % of control

COc1ccc(Sc2ccccn2)cc1OC
inactive: [7] 101 % of control | [8] 106 % of control | [9] 114 % of control

Cc1ccc(S(=O)(=O)OC2CCCC2)cc1
inactive: [4] 100 % of control | [5] 103 % of control | dose: 200.0 mg/kg/injection, schedule: Q01DX009 (ip), vehicle: other 89 % of control

COC(=O)C1=Cc2c(n3ncnc3n(-c3ccccc3)c2=O)N(S(=O)(=O)c2ccc(C)cc2)CC1
inactive: dose: 60.0 mg/kg/injection, schedule: Q01DX005 (ip), vehicle: saline with Tween-80 93 % of control | dose: 120.0 mg/kg/injection, schedule: Q01DX005 (ip), vehicle: saline with Tween-80 95 % of control | dose: 240.0 mg/kg/injection, schedule: Q01DX005 (ip), vehicle: saline with Tween-80 97 % of control

Clc1ccc2nc3c(c(N4CCCCC4)c2c1)CCCC3
inactive: [7] 105 % of control | [8] 105 % of control | [9] 100 % of control
